Results on 1 compound are retold here after patent US20080167272A1, “Thalidomide metabolites and methods of use” (Auckland Uniservices Limited, priority 2005, published 2008).

The nature of series [1]: Stability of CG in PBS at different pH (HPLC). Format: physicochemical. The method, then: CG (50 μM) with 60 μM of phenacetin (as an internal standard) at pH 3.5, 6.8, 7.1, 7.4, 7.7 and 8 in 8 mm clear polyethylene starburst conical snap vials (Alltech, Deerfield, Ill., USA), was incubated in the autosampler (Waters Associates, Milford, Mass., USA) at 37° C. Aliquots (50 μl) of the solutions were then automatically loaded at 0, 6, 12, 18 and 24 hours after incubation onto a Waters Breeze chromatograph (Waters Associates, Milford, Mass., USA) which consisted of a Model 717plus autosampler, Model 1525 binary pump and Model 2487 dual wavelength absorbance detector.
Compounds were separated using a previously described (Chung et al, 2004) HPLC assay for thalidomide using a 100×4.6 mm stainless steel Luna 5 μm Phenylhexyl column (Phenomenex, Torrance, Calif., USA) and a mobile phase (Milli Q water:acetonitrile 10:1.3 v/v) that was pumped at a flow rate of 2 ml/min. Thalidomide and phenacetin were detected at ultraviolet wavelengths of 220 and 248 nm, respectively. The retention times of phenacetin and thalidomide and were 13 and 11 min, respectively. Data acquisition and integration was achieved using Breeze™ Software, Milford, Calif., USA. Each HPLC run included standard curves of thalidomide (0.6-100 μM) or CG (0.2-50 μM) with phenacetin (60 μM) as the internal standard in PBS. […] The r^2 of calibration curves of thalidomide was 0.9995, and for CG calibration curves was 0.9999. The intra-assay recovery was 90-110% (n=8) and the CV was 5-9% (n=4), while the inter-assay recovery was 96-104% (n=15) and the CV was 2-4% (n=6).
To construct the calibration curve, the peak-area ratios to the internal standard were plotted against thalidomide concentration and the best-fit straight line was obtained by linear regression analysis. The correlation coefficient of the calibration curves had r^2 values of greater than 0.9995. The thalidomide/phenacetin peak ratio was determined for all samples and the concentration of thalidomide in each sample was determined from the calibration curve.
The ratio of the area of the thalidomide peak or the CG peak to that of the phenacetin peak in the HPLC chromatographs then calculated and the concentration of thalidomide and CG was determined using the calibration curve. The percentage degradation of CG was calculated as: [1-(CG concentration after incubation/starting concentration)]×100.

For a further series, the system named is ECV304 cells. The experiment in a line: MTT cytotoxicity assay. Format: cell-based, human. The conditions noted are these: 18 h, 2-250/g/ml, vs untreated or DMSO-treated cultures. The procedure:
The 3-(4,5-dimethylthiazol-2-yl)-2,5-diphenyl tetrazolium bromide (MTT) assay, which measures mitochondrial metabolic activity, was used to determine cell viability (Mosmann, 1983). Cells (4×10^3/well) were cultured with various concentrations of thalidomide, CG, PG and PiG in a final volume of 100 μl M199 medium (Gibco, Grand Island, N.Y., USA) supplemented with 10% foetal bovine serum ([…] streptomycin sulphate and 100 units/ml penicillin-G (Sigma, St Louis, Calif., USA) in flat-bottomed 96-well plates at 37° C. at 5% CO2 for 18 h. At the end of the incubation period, 10 μl of MTT (Sigma, St. Louis, Mo., 5 mg/ml in PBS) was added to each well, and the cells were further incubated for 2 h. The supernatants were then removed and the formazan crystals in the cells were dissolved by the addition of 100 μl of DMSO per well, and the absorbance at 590 nm was read using a plate reader. Each concentration of drug was tested in triplicate wells, and the mean ±standard error of the mean (SEM) was calculated.
A general note: Tetrazolium assays rely on reduction of a dye to a coloured formazan, in cell work by metabolically active cells.

A further series has as its system TNF. The series is described as follows: Modulation of TNF production in Colon 38 tumour-bearing mice (serum and tumour, ELISA). Format: in vivo. Conditions: 3 h; for effect on DMXAA-induced tumour TNF level: FIG. 3B. The method, then:
Mice with Colon 38 tumours, approximately 5-7 mm in diameter, were divided into groups of 5. One group was untreated. Other groups were treated with DMXAA (25 mg/kg) alone; DMXAA (25 mg/kg)+thalidomide (100 mg/kg), DMXAA (25 mg/kg)+PG (100 mg/kg), DMXAA (25 mg/kg)+PiG (100 mg/kg), DMXAA (25 mg/kg)+CG (100 mg/kg), DMXAA (25 mg/kg)+thalidomide (20 mg/kg), DMXAA (25 mg/kg)+CG (20 mg/kg), and thalidomide, PG, PiG or CG only at 100 and 200 mg/kg. Three hours after treatment, mice were anaesthetized with halothane (NZ Pharmacology Ltd., Christchurch, New Zealand), and blood was collected from the ocular sinus and tumours were excised. Blood was coagulated overnight at 4° C., and then centrifuged for 30 min at 2,000×g and 4° C., and the serum was removed and stored at −80° C. until use. Tumour tissues were weighed and homogenized in 1.5 ml α-minimal essential medium (Gibco, Grand Island, N.Y., USA). The homogenates were centrifuged (2,000×g, 30 min, 4° C.) and supernatant was removed and re-centrifuged (14,000×g, 30 min, 4° C.). The final supernatants were removed and kept at −80° C. until use. TNF levels in serum and supernatants derived from tumour homogenates were assayed for TNF as described in section 4 (below).
TNF was assayed using a commercially available ELISA kit (OpEIA human or murine TNF kit, PharMingen, San Diego, Calif., USA), according to the manufacturer's instructions. Briefly, samples (100 μl/well) in duplicate together with a serial dilution of TNF (31.25-2000 pg/ml) for the standard curve, were added to flat-bottom 96-well plates pre-coated with immobilised monoclonal anti-TNF antibody and incubated at room temperature for 2 h. The wells were then washed, biotinylated polyclonal antibody to TNF was added, followed by peroxidase-labelled streptavidin, and incubated at room temperature for 1 h. The wells were washed again, and the substrate, tetramethylbenzidine and hydrogen peroxide was added and after 10 min the reaction was stopped with 2 N sulphuric acid. The absorbance at 450 nm was determined using a microtitre plate reader.

Turning to `O=C1CCC(NC(=O)c2ccccc2C(=O)O)C(=O)N1` (stereo not shown) [CG, 2-{[(2,6-Dioxo-3-piperidinyl)amino]carbonyl}benzoic acid], the figures for the stability in solution entry in series [1] (low pH) and in series [1] (pHs between 6.8-7.4) were “unstable” and “stable”, respectively. In addition, the “CG remaining in the solution after 24 h” value in series [1] (pH 3.5, 37° C.) is on record as 21.5%; in series [1] (pH 7.7, 37° C.), 8.6%; in series [1] (pH 8, 37° C.), 0%. Also, the “CG transformed into thalidomide” value in series [1] (pH 3.5, 24 h incubation) came to 42%. The “thalidomide in CG solutions after incubation” value in series [1] (pH 6.8, 7.1, 7.4, 7.7 or 8) is “not detected”. Further, the “CG remaining in solution after 24 h” value in series [1] (pH 6.8, 37° C.) is reported as 81.75%; in series [1] (pH 7.1, 37° C.), 50.1%; in series [1] (pH 7.4, 37° C.), 46.6%. Also, in series [1] (physiological conditions), the “stability compared with thalidomide” value was “more stable than thalidomide”. In series [1] (physiological conditions, after 6 h), the CG degraded is 1.3-20%. Moreover, the “toxicity (cell viability, MTT)” value in the series on ECV304 cells is listed as “No toxicity was observed”. In addition, the “effect on DMXAA-induced tumour TNF level” value in the series on TNF (20 mg/kg co-administered with DMXAA 25 mg/kg) and in the series on TNF (100 mg/kg co-administered with DMXAA 25 mg/kg) was “significantly increased” each time. For the same compound, the “effect on DMXAA-induced serum TNF level” value in the series on TNF (100 mg/kg co-administered with DMXAA 25 mg/kg, FIG. 3A) is recorded as “decreased”.
